From patent publication US9732032B2, “3-aminocyclopentane carboxamide derivatives” (Merck Patent GmbH, priority 2012, dated 2017)

Target: T1, human recombinant full-length fatty acid synthase (FASN) (Homo sapiens, UniProt P49327)
T1 construct: human recombinant full-length fatty acid synthase; made in house; host or cells: SF9 cells
Assay: Biochemical activity testing of human fatty acid synthase FASN (NADPH fluorescence intensity assay)
Details: NADPH fluorescence decrease (ex 340 nm / em 460 nm), 30 minutes at room temperature, read-out: IC50 FASN (enzyme assay)
Description: aq (aqueous), h (hour), g (gram), L (liter), mg (milligram), MHz (Megahertz), (melting point), eq (equivalent), mL (milliliter), L (microliter), ACN (acetonitrile), AcOH (acetic acid), CDCl3 (deuterated chloroform), CD3OD (deuterated methanol), CH3CN (acetonitrile), c-hex (cyclohexane), DCC (dicyclohexyl carbodiimide), DCM (dichloromethane), DIC (diisopropyl carbodiimide), DIEA (diisopropylethyl-amine), DMF (dimethylformamide), DMSO (dimethylsulfoxide), DMSO-d6 (deuterated dimethylsulfoxide), EDC (1-(3-dimethyl-amino-propyl)-3-ethylcarbodiimide), ESI (Electro-spray ionization), EtOAc (ethyl acetate), Et2O (diethyl ether), EtOH (ethanol), HATU (dimethylamino-([1,2,3]triazolo[4,5-b]pyridin-3-yloxy)-methylene]-dimethylammonium hexafluorophosphate), HPLC (High Performance Liquid Chromatography), i-PrOH (2-propanol), K2CO3 (potassium carbonate), LC (Liquid Chromatography), MeOH (methanol), MgSO4 (magnesium sulfate), MS (mass spectrometry), MTBE (Methyl tert-butyl ether), NaHCO3 (sodium bicarbonate), NaBH4 (sodium borohydride), NMM (N-methyl morpholine), NMR (Nuclear Magnetic Resonance), PyBOP (benzotriazole-1-yl-oxy-trispyrrolidino-phosphonium hexafluorophosphate), RT (room temperature), Rt (retention time), SPE (solid phase extraction), TBTU (2-(1-H-benzotriazole-1-yl)-1,1,3,3-tetramethyluromium tetrafluoro borate), TEA (triethylamine), TFA (trifluoroacetic acid), THF (tetrahydrofuran), TLC (Thin Layer Chromatography), UV (Ultraviolet). Description of the In Vitro Assays Abbreviations: GST=Glutathione-S-transferase FRET=Fluorescence resonance energy transfer HTRF®=(homogenous time resolved fluorescence) HEPES=4-(2-hydroxyethyl)-1-piperazine ethanesulfonic acid buffer DTT=Dithiothreitol BSA=bovine serum albumin CHAPS=detergent; CHAPS=3[(3-cholamidopropyl)dimethylammonio]-1-propanesulfonate Biochemical Activity Testing of Human Fatty Acid Synthase FASN
Fatty acid synthase FASN is a multifunctional enzyme with seven catalytic activities thereby synthesising long chain fatty acids especially palmitoyl-CoA in the presence of co-factor NADPH starting from the substrates acetyl-CoA and malonyl-CoA. The reductive synthesis is realized by the oxidation of NADPH to NADP. Since NADPH has a high fluorescence intensity quantum yield compared to NADP with excitation at 340 nm and emission at 460 nm, the reaction can be monitored via the decrease in fluorescence intensity. The biochemical FASN activity testing was performed as 384 well two-time-point kinetic fluorescence intensity assay format in Greiner low volume medium binding 384-well black microtiter plates in a total assay volume of 8 μl and was used for high throughput screen. In each well 3 μl 40 nM human recombinant full-length fatty acid synthase (produced in-house in SF9 cells) were dispensed in the following assay buffer: 50 mM potassium phosphate buffer pH 7.0, 0.005% (w/v) BSA, 2 mM Glutathione, 0.02% Tween-20. Then 2 μl of 200 μM NADPH in assay buffer were added, followed by the addition of the test compounds in 10 dilution concentrations starting with 30 μM (final concentration) to get a final DMSO content of 1% (v/v). The mixture was incubated for at least 15 min at room temperature. After the pre-incubation the enzymatic reaction was started by the addition of 2 μl substrate solution (80 μM acetyl-CoA, 240 μM malonyl-CoA). A first fluorescence intensity measurement (time point one) was performed with an Envision multimode reader (Perkin Elmer LAS Germany GmbH) at excitation wavelength 340 nm (lamp mode) and emission wavelength 460 nm. The reaction was incubated for 30 minutes at room temperature. After this the fluorescence intensity was measured again in the Envision using the same parameters as described above (second time point measurement). The data were analysed by subtracting the first time point measurement value from the second time point measurement value (after the enzymatic reaction). The differences of the emission signals were determined. […]

T1 sequence (P49327 whole entry): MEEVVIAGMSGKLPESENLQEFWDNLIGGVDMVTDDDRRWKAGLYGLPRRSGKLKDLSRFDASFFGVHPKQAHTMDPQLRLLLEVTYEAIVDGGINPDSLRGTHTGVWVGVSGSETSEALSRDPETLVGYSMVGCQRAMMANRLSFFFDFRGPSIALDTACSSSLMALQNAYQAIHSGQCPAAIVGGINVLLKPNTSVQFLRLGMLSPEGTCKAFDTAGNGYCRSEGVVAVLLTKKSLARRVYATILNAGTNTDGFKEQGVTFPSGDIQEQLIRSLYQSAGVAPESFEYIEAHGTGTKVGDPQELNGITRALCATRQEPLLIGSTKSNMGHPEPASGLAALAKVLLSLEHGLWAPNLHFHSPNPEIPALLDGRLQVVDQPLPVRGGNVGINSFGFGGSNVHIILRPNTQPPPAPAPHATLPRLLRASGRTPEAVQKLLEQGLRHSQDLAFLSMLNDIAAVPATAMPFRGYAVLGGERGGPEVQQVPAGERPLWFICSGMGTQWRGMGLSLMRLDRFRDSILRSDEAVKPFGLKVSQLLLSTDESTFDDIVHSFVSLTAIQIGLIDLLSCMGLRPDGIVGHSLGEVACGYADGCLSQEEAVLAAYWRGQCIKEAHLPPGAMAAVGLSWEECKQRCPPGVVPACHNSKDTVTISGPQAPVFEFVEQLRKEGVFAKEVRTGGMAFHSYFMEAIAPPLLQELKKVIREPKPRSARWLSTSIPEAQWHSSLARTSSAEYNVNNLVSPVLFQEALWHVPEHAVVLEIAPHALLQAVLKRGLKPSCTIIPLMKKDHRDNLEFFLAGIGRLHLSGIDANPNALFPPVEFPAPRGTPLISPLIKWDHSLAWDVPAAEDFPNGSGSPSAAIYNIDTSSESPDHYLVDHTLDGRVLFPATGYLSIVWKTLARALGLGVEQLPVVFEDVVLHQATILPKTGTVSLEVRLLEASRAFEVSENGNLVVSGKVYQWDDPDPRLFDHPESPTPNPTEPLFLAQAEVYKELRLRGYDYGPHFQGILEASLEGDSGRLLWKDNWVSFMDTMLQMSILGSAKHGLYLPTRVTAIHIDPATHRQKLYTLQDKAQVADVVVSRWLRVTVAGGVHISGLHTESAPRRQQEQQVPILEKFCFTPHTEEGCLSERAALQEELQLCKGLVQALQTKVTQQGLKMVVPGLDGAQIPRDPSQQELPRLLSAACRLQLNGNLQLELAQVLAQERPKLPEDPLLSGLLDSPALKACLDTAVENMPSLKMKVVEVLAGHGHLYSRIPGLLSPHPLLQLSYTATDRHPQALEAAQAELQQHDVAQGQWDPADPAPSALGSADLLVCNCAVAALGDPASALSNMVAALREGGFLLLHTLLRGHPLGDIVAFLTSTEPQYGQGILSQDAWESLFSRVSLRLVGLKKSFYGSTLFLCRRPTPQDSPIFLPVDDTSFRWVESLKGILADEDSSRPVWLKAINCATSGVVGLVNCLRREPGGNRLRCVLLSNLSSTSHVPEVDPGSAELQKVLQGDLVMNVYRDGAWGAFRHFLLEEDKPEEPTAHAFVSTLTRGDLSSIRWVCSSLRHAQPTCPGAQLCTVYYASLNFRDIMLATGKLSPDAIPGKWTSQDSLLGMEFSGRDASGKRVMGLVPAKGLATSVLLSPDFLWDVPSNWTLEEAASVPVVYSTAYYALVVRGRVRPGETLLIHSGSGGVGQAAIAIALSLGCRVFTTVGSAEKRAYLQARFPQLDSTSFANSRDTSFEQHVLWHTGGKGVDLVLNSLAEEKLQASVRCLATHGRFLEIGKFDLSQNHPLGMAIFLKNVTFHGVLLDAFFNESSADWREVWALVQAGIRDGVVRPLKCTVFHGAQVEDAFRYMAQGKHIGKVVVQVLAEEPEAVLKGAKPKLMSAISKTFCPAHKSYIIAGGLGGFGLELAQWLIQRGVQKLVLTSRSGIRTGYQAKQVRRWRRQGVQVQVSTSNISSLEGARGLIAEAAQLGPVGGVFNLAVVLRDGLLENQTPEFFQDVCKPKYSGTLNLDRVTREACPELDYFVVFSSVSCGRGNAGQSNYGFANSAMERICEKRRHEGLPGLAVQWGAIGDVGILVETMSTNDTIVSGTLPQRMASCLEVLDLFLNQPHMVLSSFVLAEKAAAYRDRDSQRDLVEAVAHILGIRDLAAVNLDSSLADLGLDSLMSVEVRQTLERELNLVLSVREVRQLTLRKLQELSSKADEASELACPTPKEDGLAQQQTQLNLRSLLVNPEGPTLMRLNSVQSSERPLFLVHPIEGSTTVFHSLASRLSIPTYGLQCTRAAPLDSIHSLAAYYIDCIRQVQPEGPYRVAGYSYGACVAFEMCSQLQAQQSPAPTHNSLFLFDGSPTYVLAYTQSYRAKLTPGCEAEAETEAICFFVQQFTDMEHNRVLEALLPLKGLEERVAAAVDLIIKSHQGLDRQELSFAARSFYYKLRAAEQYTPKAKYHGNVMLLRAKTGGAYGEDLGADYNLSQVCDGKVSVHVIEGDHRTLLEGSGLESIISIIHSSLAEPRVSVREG

With `CCNC(=O)C1CC[C@@H](N(C)C(=O)c2ccc(-c3nc4cccc(F)c4o3)cc2)C1` (stereo in doubt) [Compound A100, N-((1R,3S)-3-ethylcarbamoyl-cyclopentyl)-4-(7-fluoro-benzooxazol-2-yl)-N-methyl-benzamide] the IC50 was < 300 nM.
`CCNC(=O)[C@H]1CC[C@@H](N(C)C(=O)c2ccc(-c3nc4ccccc4o3)cc2)C1` [Compound A1, 4-(1,3-benzoxazol-2-yl)-N-[(1R,3S)-3-(ethylcarbamoyl)cyclopentyl]-N-methyl-benzamide] was tested, and the IC50 was < 300 nM.
`CCNC(=O)[C@H]1CC[C@@H](N(C)C(=O)c2ccc(-c3nc4ccccc4n3C)cc2)C1` [Compound A2, N-((1R,3S)-3-ethylcarbamoyl-cyclopentyl)-N-methyl-4-(1-methyl-1H-benzoimidazol-2-yl)-benzamide] was tested, and the IC50 was < 300 nM.
With `CCNC(=O)[C@H]1CC[C@@H](N(C)C(=O)c2ccc(-c3ccc(O[C@@H]4CCOC4)cc3)cc2)C1` [Compound A4, 4′-[(R)-(tetrahydro-furan-3-yl)oxy]-biphenyl-4-carboxylic acid ((1R,3S)-3-ethylcarbamoyl-cyclopentyl)-methyl-amide] the IC50 was 300 to 3000 nM.
For `CC(C)NC(=O)[C@H]1CC[C@@H](N(C)C(=O)c2ccc(-c3nc4ccccc4o3)cc2)C1` [Compound A5, 4-benzoxazol-2-yl-N-((1R,3S)-3-isopropylcarbamoyl-cyclopentyl)-N-methyl-benzamide], the IC50 was < 300 nM.
In the case of `CN(C(=O)c1ccc(-c2nc3ccccc3o2)cc1)[C@@H]1CC[C@H](C(=O)NC2CC2)C1` [Compound A6, 4-benzoxazol-2-yl-N-((1R,3S)-3-cyclopropylcarbamoyl-cyclopentyl)-N-methyl-benzamide], the IC50 is reported as < 300 nM.
In the case of `CN(C(=O)c1ccc(-c2nc3ccccc3o2)cc1)[C@@H]1CC[C@H](C(=O)NC2CCCC2)C1` [Compound A7, 4-benzoxazol-2-yl-N-((1R,3S)-3-cyclopentylcarbamoyl-cyclopentyl)-N-methyl-benzamide], the IC50 is reported as < 300 nM.
In the case of `CCNC(=O)[C@H]1CC[C@@H](N(C)C(=O)c2ccc(-c3nc4ccccc4[nH]3)cc2)C1` [Compound A11, 4-(1H-benzimidazol-2-yl)-N-[(1R,3S)-3-(ethylcarbamoyl)cyclopentyl]-N-methyl-benzamide], the IC50 is reported as < 300 nM.
With `CCNC(=O)[C@@H]1CC[C@@H](N(C)C(=O)c2ccc(-c3nc4ccccc4o3)cc2)C1` [Compound A44, 4-(1,3-benzoxazol-2-yl)-N-[(1R,3R)-3-(ethylcarbamoyl)cyclopentyl]-N-methyl-benzamide] the IC50 was < 300 nM.
With `CCNC(=O)[C@H]1CC[C@@H](N(C)C(=O)c2ccc(-c3nc4ccccc4o3)c(OC)c2)C1` [Compound A45, 4-benzoxazol-2-yl-N-((1R,3S)-3-ethylcarbamoyl-cyclopentyl)-3-methoxy-N-methyl-benzamide] the IC50 was < 300 nM.
For `CCNC(=O)[C@H]1CC[C@@H](N(C)C(=O)c2ccc(-c3nc4ccccc4o3)cc2OC)C1` [Compound A46, 4-benzoxazol-2-yl-N-((1R,3S)-3-ethylcarbamoyl-cyclopentyl)-2-methoxy-N-methyl-benzamide], the IC50 was < 300 nM.
`CCN(C)C(=O)[C@H]1CC[C@@H](N(C)C(=O)c2ccc(-c3nc4ccccc4o3)cc2)C1` [Compound A47, 4-benzoxazol-2-yl-N-[(1R,3S)-3-(ethyl-methyl-carbamoyl)-cyclopentyl]-N-methyl-benzamide] gave an IC50 of 300 to 3000 nM.
With `CCN(CC)C(=O)[C@H]1CC[C@@H](N(C)C(=O)c2ccc(-c3nc4ccccc4o3)cc2)C1` [Compound A48, 4-benzoxazol-2-yl-N-((1R,3S)-3-diethylcarbamoyl-cyclopentyl)-N-methyl-benzamide] the IC50 was 300 to 3000 nM.
With `CCNC(=O)[C@H]1CC[C@@H](N(C)C(=O)c2ccc(-c3ccc(C)cc3)cc2)C1` [Compound A49, 4′-methyl-biphenyl-4-carboxylic acid ((1R,3S)-3-ethylcarbamoyl-cyclopentyl)-methyl-amide] the IC50 was < 300 nM.
In the case of `CCNC(=O)[C@H]1CC[C@@H](N(C)C(=O)c2ccc(-c3ccccc3)cc2)C1` [Compound A50, biphenyl-4-carboxylic acid ((1R,3S)-3-ethylcarbamoyl-cyclopentyl)-methyl-amide], the IC50 is reported as < 300 nM.
In the case of `CCNC(=O)[C@H]1CC[C@@H](N(C)C(=O)c2ccc(-c3ccccc3)cc2Cl)C1` [Compound A51, 3-chloro-biphenyl-4-carboxylic acid ((1R,3S)-3-ethylcarbamoyl-cyclopentyl)-methyl-amide], the IC50 is reported as < 300 nM.
Compound `CCNC(=O)[C@H]1CC[C@@H](N(C)C(=O)c2ccc(-c3nnc(OC)cc3C)cc2)C1` [Compound A52, N-((1R,3S)-3-ethylcarbamoyl-cyclopentyl)-4-(6-methoxy-4-methyl-pyridazin-3-yl)-N-methyl-benzamide] has an IC50 of 3000 to 50000 nM.
In the case of `CCNC(=O)[C@H]1CC[C@@H](N(C)C(=O)c2ccc(-c3ccccc3)cn2)C1` [Compound A53, 5-phenyl-pyridine-2-carboxylic acid ((1R,3S)-3-ethylcarbamoyl-cyclopentyl)-methyl-amide], the IC50 is reported as < 300 nM.
In the case of `CCNC(=O)[C@H]1CC[C@@H](N(C)C(=O)c2ccc(C#Cc3ccc(Cl)cc3)cc2)C1` [Compound A54, 4-(4-chloro-phenylethynyl)-N-((1R,3S)-3-ethylcarbamoyl-cyclopentyl)-N-methyl-benzamide], the IC50 is reported as < 300 nM.
`CCNC(=O)[C@H]1CC[C@@H](N(C)C(=O)c2ccc(C#Cc3ccc(F)cc3)cc2)C1` [Compound A55, N-((1R,3S)-3-ethylcarbamoyl-cyclopentyl)-4-(4-fluoro-phenylethynyl)-N-methyl-benzamide] was tested, and the IC50 was < 300 nM.
`CCNC(=O)[C@H]1CC[C@@H](N(C)C(=O)c2ccc(-c3ccncc3)cc2)C1` [Compound A56, N-((1R,3S)-3-ethylcarbamoyl-cyclopentyl)-N-methyl-4-pyridin-4-yl-benzamide] was tested, and the IC50 was < 300 nM.
For `CCNC(=O)[C@H]1CC[C@@H](N(C)C(=O)c2ccc(-c3ccncc3)cc2F)C1` [Compound A57, N-((1R,3S)-3-ethylcarbamoyl-cyclopentyl)-2-fluoro-N-methyl-4-pyridin-4-yl-benzamide], the IC50 was < 300 nM.
In the case of `CCNC(=O)[C@H]1CC[C@@H](N(C)C(=O)c2c(F)cc(-c3ccc(CC)cc3)cc2F)C1` [Compound A58, 4′-ethyl-3,5-difluoro-biphenyl-4-carboxylic acid ((1R,3S)-3-ethylcarbamoyl-cyclopentyl)-methyl-amide], the IC50 is reported as < 300 nM.
In the case of `CCNC(=O)[C@H]1CC[C@@H](N(C)C(=O)c2ccc(-c3ccccc3S(C)(=O)=O)cc2)C1` [Compound A59, 2′-methanesulfonyl-biphenyl-4-carboxylic acid ((1R,3S)-3-ethylcarbamoyl-cyclopentyl)-methyl-amide], the IC50 is reported as < 300 nM.
For `CCNC(=O)[C@H]1CC[C@@H](N(C)C(=O)c2ccc(-c3ccccc3S(=O)(=O)NC(C)(C)C)cc2)C1` [Compound A60, 2′-tert-butylsulfamoyl-biphenyl-4-carboxylic acid ((1R,3S)-3-ethylcarbamoyl-cyclopentyl)-methyl-amide], the IC50 was 3000 to 50000 nM.
`CCNC(=O)[C@H]1CC[C@@H](N(C)C(=O)c2ccc(-c3ccccc3S(N)(=O)=O)cc2)C1` [Compound A61, 2′-sulfamoyl-biphenyl-4-carboxylic acid ((1R,3S)-3-ethylcarbamoyl-cyclopentyl)-methyl-amide] was tested, and the IC50 was < 300 nM.
In the case of `CCNC(=O)[C@H]1CC[C@@H](N(C)C(=O)c2ccc(-c3ccc(Cl)cc3)cc2)C1` [Compound A62, 4′-chloro-biphenyl-4-carboxylic acid ((1R,3S)-3-ethylcarbamoyl-cyclopentyl)-methyl-amide], the IC50 is reported as < 300 nM.
